Test results: ChEMBL document CHEMBL5674866 (J Biol Chem, 2015)

Experiments:
[1] = target: Myosin-IIIa (Homo sapiens, UniProt Q8NEV4); test: Inhibition of human MYO3A by discoverX kinome scan assay
[2] = target: Protein kinase C eta type (Homo sapiens, UniProt P24723); test: Inhibition of human PRKCH by discoverX kinome scan assay
[3] = Inhibition of human ABL1 pH396P mutant by discoverX kinome scan assay
[4] = Inhibition of human ABL1 pT315I mutant by discoverX kinome scan assay
[5] = target: Serine/threonine-protein kinase MRCK beta (Homo sapiens, UniProt Q9Y5S2); test: Inhibition of human MRCKB by discoverX kinome scan assay
[6] = target: Phosphatidylinositol 4,5-bisphosphate 3-kinase catalytic subunit beta isoform (Homo sapiens, UniProt P42338); test: Inhibition of human PIK3CB by discoverX kinome scan assay
[7] = system: KYSE-150 cell line; test: Effect on cellular post-translational modifications on histone […] (GKGGKGLGKGGAKR) - K5 acetylated , K8 unmethylated , K12 acetylated, K16 unmethylated in human KYSE-150 cells assessed as relative abundance at 5 by mass spectrometric analysis (reference value: 3+/-1.7); type: functional; conditions: dose 5 µM
[8] = target: T1, Serine/threonine-protein kinase Nek2 (Homo sapiens, UniProt P51955); test: Inhibition of human NEK2 by discoverX kinome scan assay
T1 sequence (P51955 whole entry): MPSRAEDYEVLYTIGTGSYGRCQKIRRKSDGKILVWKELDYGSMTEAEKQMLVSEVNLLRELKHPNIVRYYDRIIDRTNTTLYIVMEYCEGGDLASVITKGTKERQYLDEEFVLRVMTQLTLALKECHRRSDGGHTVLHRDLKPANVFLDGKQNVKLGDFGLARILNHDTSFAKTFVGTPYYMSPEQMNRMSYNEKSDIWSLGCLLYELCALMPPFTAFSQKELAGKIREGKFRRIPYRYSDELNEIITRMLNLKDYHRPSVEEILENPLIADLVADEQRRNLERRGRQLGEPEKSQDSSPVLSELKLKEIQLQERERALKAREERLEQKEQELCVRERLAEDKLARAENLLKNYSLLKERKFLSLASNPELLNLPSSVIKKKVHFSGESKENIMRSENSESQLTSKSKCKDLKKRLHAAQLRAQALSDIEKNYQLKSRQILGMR

[9] = target: T2, Mitogen-activated protein kinase 13 (Homo sapiens, UniProt O15264); test: Inhibition of human p38-delta by discoverX kinome scan assay
T2 sequence (O15264 whole entry): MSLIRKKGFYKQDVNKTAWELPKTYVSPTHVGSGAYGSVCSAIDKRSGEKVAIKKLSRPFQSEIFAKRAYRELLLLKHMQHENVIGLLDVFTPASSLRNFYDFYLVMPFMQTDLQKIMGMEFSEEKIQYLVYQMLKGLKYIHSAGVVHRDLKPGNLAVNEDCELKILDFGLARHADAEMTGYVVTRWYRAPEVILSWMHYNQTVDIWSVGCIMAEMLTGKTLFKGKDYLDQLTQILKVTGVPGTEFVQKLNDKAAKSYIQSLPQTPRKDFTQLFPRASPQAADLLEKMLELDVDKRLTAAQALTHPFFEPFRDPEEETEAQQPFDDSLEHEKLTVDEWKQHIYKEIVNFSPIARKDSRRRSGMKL

[10] = Inhibition of human ABL1 pM351T mutant by discoverX kinome scan assay

Sequence of Phosphatidylinositol 4,5-bisphosphate 3-kinase catalytic subunit beta isoform (P42338 whole entry, canonical isoform): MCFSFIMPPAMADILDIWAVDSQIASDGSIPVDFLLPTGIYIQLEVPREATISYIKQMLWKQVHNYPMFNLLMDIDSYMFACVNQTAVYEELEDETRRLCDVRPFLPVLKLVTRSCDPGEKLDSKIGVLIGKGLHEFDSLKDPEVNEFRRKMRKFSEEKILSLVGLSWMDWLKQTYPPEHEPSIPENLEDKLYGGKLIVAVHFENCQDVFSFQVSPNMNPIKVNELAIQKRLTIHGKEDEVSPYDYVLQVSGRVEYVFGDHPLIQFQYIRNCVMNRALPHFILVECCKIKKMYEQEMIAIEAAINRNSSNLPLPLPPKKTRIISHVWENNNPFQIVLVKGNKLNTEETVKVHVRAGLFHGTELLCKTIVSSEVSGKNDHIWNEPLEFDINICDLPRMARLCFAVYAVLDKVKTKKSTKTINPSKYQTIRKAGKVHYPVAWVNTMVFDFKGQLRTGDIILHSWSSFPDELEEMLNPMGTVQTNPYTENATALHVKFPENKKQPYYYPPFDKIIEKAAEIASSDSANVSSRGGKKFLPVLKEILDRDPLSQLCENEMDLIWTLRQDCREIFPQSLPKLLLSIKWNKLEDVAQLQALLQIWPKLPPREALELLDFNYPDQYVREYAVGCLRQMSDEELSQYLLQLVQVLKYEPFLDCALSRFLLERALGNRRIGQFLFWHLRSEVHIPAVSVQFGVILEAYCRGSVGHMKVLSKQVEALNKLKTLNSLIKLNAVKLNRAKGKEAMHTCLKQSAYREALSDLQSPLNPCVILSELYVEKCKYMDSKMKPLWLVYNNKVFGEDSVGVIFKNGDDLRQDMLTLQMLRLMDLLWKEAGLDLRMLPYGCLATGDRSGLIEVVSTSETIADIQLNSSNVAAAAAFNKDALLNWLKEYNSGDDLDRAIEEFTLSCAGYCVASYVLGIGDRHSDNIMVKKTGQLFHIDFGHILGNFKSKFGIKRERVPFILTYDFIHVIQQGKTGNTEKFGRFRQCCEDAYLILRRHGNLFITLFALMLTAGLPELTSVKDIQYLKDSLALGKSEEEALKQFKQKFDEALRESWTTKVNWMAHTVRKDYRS
Sequence of Protein kinase C eta type (P24723 whole entry): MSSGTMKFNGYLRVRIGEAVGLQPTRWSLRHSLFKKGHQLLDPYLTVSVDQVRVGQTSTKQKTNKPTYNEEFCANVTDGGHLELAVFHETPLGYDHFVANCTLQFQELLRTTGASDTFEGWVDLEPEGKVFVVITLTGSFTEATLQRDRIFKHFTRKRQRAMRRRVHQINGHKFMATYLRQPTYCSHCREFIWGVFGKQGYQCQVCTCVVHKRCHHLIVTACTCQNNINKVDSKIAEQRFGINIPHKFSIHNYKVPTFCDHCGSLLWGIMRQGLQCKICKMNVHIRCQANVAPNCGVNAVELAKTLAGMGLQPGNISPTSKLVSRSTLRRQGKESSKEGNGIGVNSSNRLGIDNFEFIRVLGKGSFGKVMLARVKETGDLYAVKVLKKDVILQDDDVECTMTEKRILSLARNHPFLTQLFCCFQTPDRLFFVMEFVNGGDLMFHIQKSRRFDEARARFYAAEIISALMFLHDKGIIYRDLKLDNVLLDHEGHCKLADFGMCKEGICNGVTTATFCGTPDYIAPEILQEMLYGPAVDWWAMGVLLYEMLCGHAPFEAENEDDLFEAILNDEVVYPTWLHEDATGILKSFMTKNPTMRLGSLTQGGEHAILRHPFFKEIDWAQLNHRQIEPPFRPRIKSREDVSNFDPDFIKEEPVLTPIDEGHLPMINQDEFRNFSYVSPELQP
Sequence of Myosin-IIIa (Q8NEV4 whole entry): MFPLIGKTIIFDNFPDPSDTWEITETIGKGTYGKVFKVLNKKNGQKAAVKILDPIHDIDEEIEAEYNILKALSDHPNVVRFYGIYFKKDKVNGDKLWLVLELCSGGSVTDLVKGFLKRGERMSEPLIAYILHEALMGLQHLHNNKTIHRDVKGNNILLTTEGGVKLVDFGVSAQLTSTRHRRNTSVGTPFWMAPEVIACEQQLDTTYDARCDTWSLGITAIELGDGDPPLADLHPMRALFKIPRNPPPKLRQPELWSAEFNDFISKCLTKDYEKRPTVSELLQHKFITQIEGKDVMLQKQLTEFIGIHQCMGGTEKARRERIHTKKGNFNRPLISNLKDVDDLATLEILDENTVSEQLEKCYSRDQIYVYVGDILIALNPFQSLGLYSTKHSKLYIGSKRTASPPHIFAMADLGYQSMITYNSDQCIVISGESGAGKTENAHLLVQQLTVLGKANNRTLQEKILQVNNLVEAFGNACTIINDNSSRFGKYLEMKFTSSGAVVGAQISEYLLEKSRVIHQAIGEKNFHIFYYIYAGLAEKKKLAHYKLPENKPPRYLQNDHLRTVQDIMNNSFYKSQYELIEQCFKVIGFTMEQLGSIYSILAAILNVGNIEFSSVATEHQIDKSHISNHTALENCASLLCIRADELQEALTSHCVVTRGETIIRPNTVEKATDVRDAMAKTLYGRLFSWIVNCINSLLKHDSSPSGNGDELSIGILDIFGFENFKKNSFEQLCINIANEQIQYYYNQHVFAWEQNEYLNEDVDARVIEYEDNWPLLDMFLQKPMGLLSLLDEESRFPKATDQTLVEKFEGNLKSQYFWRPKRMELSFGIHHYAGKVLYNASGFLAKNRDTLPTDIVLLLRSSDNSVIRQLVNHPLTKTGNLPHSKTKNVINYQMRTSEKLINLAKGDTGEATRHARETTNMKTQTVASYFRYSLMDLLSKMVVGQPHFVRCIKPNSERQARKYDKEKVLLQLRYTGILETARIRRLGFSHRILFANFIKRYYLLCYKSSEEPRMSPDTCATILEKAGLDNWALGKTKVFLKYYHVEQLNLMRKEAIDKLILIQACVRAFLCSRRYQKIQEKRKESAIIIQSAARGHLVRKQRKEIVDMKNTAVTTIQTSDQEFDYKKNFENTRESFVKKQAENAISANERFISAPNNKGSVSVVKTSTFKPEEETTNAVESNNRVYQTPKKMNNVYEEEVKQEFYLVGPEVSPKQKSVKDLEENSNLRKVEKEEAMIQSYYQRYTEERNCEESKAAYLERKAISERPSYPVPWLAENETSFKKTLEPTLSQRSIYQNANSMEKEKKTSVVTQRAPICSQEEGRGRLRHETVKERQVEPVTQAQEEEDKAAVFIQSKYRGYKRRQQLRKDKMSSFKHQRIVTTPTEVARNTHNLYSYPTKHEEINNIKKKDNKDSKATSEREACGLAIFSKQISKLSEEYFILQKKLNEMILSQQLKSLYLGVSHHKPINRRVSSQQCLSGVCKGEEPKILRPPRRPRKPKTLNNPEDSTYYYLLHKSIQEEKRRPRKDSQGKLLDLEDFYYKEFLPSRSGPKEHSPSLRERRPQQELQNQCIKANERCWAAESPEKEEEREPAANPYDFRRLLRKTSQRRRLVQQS
Sequence of Serine/threonine-protein kinase MRCK beta (Q9Y5S2 whole entry, canonical isoform): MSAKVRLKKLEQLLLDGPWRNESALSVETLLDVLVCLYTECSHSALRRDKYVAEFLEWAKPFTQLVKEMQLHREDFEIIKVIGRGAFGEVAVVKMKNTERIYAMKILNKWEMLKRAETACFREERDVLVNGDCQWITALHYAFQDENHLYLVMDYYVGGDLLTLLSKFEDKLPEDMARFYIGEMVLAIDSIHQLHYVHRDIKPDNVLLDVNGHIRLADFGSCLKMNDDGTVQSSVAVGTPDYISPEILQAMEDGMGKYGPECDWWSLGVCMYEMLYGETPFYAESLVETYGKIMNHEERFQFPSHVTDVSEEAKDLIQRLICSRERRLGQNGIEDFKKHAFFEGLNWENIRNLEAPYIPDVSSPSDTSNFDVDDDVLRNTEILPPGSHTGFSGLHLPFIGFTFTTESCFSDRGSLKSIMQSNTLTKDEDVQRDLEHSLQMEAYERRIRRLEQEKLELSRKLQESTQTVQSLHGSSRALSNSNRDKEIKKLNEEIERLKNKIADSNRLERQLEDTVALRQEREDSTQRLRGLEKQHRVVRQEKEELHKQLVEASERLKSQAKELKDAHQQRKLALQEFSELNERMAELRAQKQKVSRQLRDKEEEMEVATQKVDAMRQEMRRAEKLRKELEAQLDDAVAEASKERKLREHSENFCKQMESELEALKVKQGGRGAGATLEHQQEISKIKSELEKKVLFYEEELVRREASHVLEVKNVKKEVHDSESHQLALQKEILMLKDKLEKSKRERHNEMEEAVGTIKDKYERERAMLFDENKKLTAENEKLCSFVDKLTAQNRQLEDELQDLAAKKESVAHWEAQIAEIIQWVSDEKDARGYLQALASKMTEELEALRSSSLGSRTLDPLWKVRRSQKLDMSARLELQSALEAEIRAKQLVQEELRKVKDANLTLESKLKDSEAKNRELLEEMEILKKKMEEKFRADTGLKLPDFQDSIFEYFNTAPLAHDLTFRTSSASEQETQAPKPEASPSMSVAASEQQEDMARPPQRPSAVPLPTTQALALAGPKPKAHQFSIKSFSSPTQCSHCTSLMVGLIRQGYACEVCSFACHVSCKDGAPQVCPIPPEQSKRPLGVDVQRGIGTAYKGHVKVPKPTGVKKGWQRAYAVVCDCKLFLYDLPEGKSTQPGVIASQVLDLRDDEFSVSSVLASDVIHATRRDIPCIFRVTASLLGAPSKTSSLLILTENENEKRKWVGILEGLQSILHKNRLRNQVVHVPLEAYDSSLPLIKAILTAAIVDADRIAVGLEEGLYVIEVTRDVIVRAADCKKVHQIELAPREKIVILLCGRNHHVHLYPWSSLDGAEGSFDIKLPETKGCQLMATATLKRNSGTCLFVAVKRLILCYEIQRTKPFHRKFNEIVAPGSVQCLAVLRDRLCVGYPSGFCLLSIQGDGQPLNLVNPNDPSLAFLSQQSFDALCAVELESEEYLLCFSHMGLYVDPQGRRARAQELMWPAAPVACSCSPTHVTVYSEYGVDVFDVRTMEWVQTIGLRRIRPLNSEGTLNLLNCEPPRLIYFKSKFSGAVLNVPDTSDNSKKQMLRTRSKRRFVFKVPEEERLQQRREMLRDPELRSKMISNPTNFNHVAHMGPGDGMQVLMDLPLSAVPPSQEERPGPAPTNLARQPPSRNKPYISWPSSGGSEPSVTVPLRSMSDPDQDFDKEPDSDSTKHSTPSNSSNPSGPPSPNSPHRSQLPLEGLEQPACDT

Cc1cn(CCN2CCN(c3ccccc3-c3cc(C#N)cc(C(=O)NCCCN4CCCC4)c3)CC2)c2ccccc12
1.6: Activity [7]
> 20 µM: IC50 [1] | IC50 [2] | IC50 [3] | IC50 [4] | IC50 [5] | IC50 [6] | IC50 [8] | IC50 [9] | IC50 [10]
